Reference: patent US20220047711A1, “PHOTOCROSSLINKING PEPTIDES FOR SITE SPECIFIC CONJUGATION TO FC-CONTAINING PROTEINS” (Genentech, Inc., priority 2018, published 2022)
“And” between values parts separate entries of the source, which are not always exact repeats. Equal values may be shown once. One block for each compound: values may come before it.

Experiments:
Trastuzumab (TMab) [1] = molecular target: T1, Trastuzumab (TMab) (Homo sapiens, UniProt P01857, D239E/L241M); assay: Photoconjugation (UV 365 nm) of peptide to Trastuzumab, DAR by LC-MS
T1 construct: Genentech (HERCEPTIN)
Protocol: (§1) Example 2: Antibody conjugation. Conjugation reactions for photocrosslinking peptides were performed open and uncovered in V-bottom, clear, polystyrene 96-well plates (ThermoFisher, product #2605) with a final reaction volume of 50 μL. Unused wells were filled with 150 μL of deionized water. Optimized reactions were performed in 20 mM histidine acetate buffer, pH=5.5, with a final concentration of 48 μM antibody, 480 μM photo-crosslinking peptide, 480 μM 5-hydroxyindole ([…], Sigma-Aldrich), with 11% (v/v) DMSO. […] The DAR was assessed by LC-MS analysis of Fc/2 or heavy chain fragments generated by IdeS or DTT treatments of Trastuzumab, respectively.

Trastuzumab (TMab) [2] = molecular target: T1, Trastuzumab (TMab); assay: SPR binding of peptides to immobilized Trastuzumab; conditions: for Kd: TMab, FIG. 3C; for reduced binding affinity (Kd fold decreased) compared to the Fc-III peptide: relative to Fc-III
Protocol: Example 2: SPR binding experiments. Kinetics of peptide binding to Trastuzumab were measured by surface plasmon resonance (SPR) on a Biacore 3000 instrument (GE Healthcare) using a previously established method. (Gong, Y.; et al., Development of the Double Cyclic Peptide Ligand for Antibody Purification and Protein Detection. Bioconjugate chemistry 2016). An amine coupling kit (GE Healthcare) was used to immobilize Trastuzumab to the surface of a CM5 Sensor Chip (GE Healthcare). All injections were double-referenced with real-time reference channel subtraction and buffer blank injections. Data were analyzed using the BiaEvaluation software (version 4.1, GE Healthcare).

[3] = molecular target: human IgG4 "YTE" mutant (B) (Homo sapiens, UniProt P01861, M132Y/S134T/T136E); assay: Photoconjugation of peptide to human IgG4 YTE mutant antibody B, DAR; conditions: Human IgG4 YTE mutant (no Met-252)
Protocol: as §1

Rituximab (human IgG1) = assay: Photoconjugation of peptide to Rituximab, DAR
Trastuzumab (TMab) [4] = molecular target: T1, Trastuzumab (TMab); assay: Photoconjugation (UV 365 nm) of peptide to Trastuzumab, DAR by LC-MS; conditions: PBS, micro-centrifuge tubes on ice, hand-held 365 nm lamp, one hour
rabbit IgG (C) = rabbit IgG (C) (Oryctolagus cuniculus, UniProt P01870); assay: Photoconjugation of peptide to rabbit IgG antibody C, DAR
Protocol: as §1

mouse IgG1 antibody (D) = mouse IgG1 antibody (D) (Mus musculus, UniProt P01868); assay: Photoconjugation of peptide to mouse IgG1 antibody D, DAR; conditions: Mouse IgG1 (no Met-252)
Protocol: as §1

human IgG4 antibody (A) = human IgG4 antibody (A) (Homo sapiens, UniProt P01861); assay: Photoconjugation of peptide to human IgG4 antibody A, DAR
Protocol: as §1

human IgG = conditions: previously reported, Gong et al. 2016; cited from earlier work
[5] = 96-well plate directly under 365 nm lamp, room temperature, 4.5 hours

DAR (Trastuzumab (TMab) [1]; [5]): 1.2
Kd (Trastuzumab (TMab) [2]): ~30 µM
reduced binding affinity (Kd fold decreased) compared to the Fc-III peptide (Trastuzumab (TMab) [2]): greater than 1700 fold
Compound: CC(=O)N[C@@H](CC(=O)O)C(=O)N[C@H]1CSSC[C@@H](C(=O)N[C@H](C(N)=O)[C@@H](C)O)NC(=O)[C@H](Cc2c[nH]c3ccccc23)NC(=O)[C@H](C(C)C)NC(=O)[C@H](CC(C)C)NC(=O)[C@H](CCC(=O)O)NC(=O)CNC(=O)[C@H](Cc2ccc(C(=O)c3ccccc3)cc2)NC(=O)[C@H](Cc2c[nH]cn2)NC(=O)[C@H](Cc2c[nH]c3ccccc23)NC(=O)[C@H](C)NC1=O [BPA4, Ac-DCAWHBGELVWCT-NH2]

DAR reached upon photoconjugation to BPA7 [3]: 0.0
DAR (Trastuzumab (TMab) [1]; [5]): ~1.7
DAR (photoconjugation efficiency) (Trastuzumab (TMab) [1]; FIG. 3C, peptide series comparison): 1.9
DAR (Trastuzumab (TMab) [1]; Row B: 267 μM BPA7, PBS, on ice (~4° C.), 4 hours): 1.5
DAR (Trastuzumab (TMab) [1]; Row C: 267 μM BPA7, histidine-acetate pH 5.5, on ice, 4 hours): 1.8
DAR (Trastuzumab (TMab) [1]; Row D: 267 μM BPA7, PBS, 267 μM 5-hydroxyindole, on ice, 4 hours): 1.4
DAR (Trastuzumab (TMab) [1]; Row E: 480 μM BPA7 (10-fold over antibody), histidine-acetate pH 5.5, 5-hydroxyindole, 6 hours, on ice): 1.9
DAR reached upon photoconjugation to BPA7 (Trastuzumab (TMab) [1]; Trastuzumab, Human IgG1): 2.0
DAR (Trastuzumab (TMab) [1]; irradiation chamber, Row A: 267 μM BPA7, PBS, room temperature, 4 hours): 1.8
drug-to-antibody ratio (DAR) (Trastuzumab (TMab) [4]): ~0.04
Kd (Trastuzumab (TMab) [2]): ~70 µM and 70 µM
bound to TMab less tightly than BPA9 (Trastuzumab (TMab) [2]; relative to BPA9): ~150 fold
reduced binding affinity (Kd fold decreased) compared to the Fc-III peptide (Trastuzumab (TMab) [2]): greater than 4000 fold
DAR reached upon photoconjugation to BPA7 (rabbit IgG (C)): 1.2
DAR reached upon photoconjugation to BPA7 (mouse IgG1 antibody (D)): 0
DAR reached upon photoconjugation to BPA7 (human IgG4 antibody (A)): 2.0
Compound: CC(=O)N[C@@H](CC(=O)O)C(=O)N[C@H]1CSSC[C@@H](C(=O)N[C@H](C(N)=O)[C@@H](C)O)NC(=O)[C@H](Cc2c[nH]c3ccccc23)NC(=O)[C@H](Cc2ccc(C(=O)c3ccccc3)cc2)NC(=O)[C@H](CC(C)C)NC(=O)[C@H](CCC(=O)O)NC(=O)CNC(=O)[C@H](CC(C)C)NC(=O)[C@H](Cc2c[nH]cn2)NC(=O)[C@H](Cc2c[nH]c3ccccc23)NC(=O)[C@H](C)NC1=O [BPA7, Ac-DCAWHLGELBWCT-NH2]
DAR reached upon photoconjugation to BPA7 (Rituximab (human IgG1)): 2.0

Compound: CC(=O)N[C@@H](CC(=O)O)C(=O)N[C@H]1CSSC[C@@H](C(=O)N[C@H](C(N)=O)[C@@H](C)O)NC(=O)[C@H](Cc2c[nH]c3ccccc23)NC(=O)[C@H](C(C)C)NC(=O)[C@H](CC(C)C)NC(=O)[C@H](CCC(=O)O)NC(=O)CNC(=O)[C@H](CC(C)C)NC(=O)[C@H](Cc2c[nH]cn2)NC(=O)[C@H](Cc2c[nH]c3ccccc23)NC(=O)[C@H](C)NC1=O [Fc-III]
Kd (human IgG): 0.07 µM

DAR (Trastuzumab (TMab) [1]; [5]): 0.2
Compound: Ac-DCAWBLGELVWCT-NH2 (DCAWXLGELVWCT; Ac, NH2; BPA non-natural residue; /note=“N-term Ac”; MOD_RES (5)..(5) p-benzoyl-L-phenylalanine; /note=“C-term NH2”) [BPA3, B = BPA]
